In one test the test system is GH3 cells. The test can be described thus: GH3 cell proliferation assay (anti-TH potency). Type of test: cell-based, rat. Conditions: for −log RIC20 (relative anti-TH potency): RIC20 (mol/L) is 20% inhibition of proliferation of GH3 cells induced by 0.5 nM T3; for TH disrupting effect determined in GH3 proliferation assay: result in words. On the procedure:
The rat pituitary tumor cell line GH3 was cultured for determination of the relative TH disrupting potencies. […] Due to cytotoxicity, the other 3 HO-PBDEs were not tested for anti-TH potencies.

A further test addresses T1, human TRα-LBD (Homo sapiens, UniProt P10827).
T1 sequence (P10827 163-410 isoform P10827-2): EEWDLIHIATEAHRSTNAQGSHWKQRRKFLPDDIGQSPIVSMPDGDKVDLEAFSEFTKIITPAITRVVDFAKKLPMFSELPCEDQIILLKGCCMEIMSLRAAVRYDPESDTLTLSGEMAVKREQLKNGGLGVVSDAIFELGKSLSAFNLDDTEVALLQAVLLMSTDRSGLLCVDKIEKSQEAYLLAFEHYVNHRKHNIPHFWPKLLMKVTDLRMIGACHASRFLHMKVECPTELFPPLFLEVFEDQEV
In words: Competitive binding assay with Fluorescein-labeled T3 probe, human TRα. Particulars: result in words (FIG. 2A).

SMILES strings stand for the structures. Entries after “also recorded” stand apart in the source; their conditions may differ.

`Oc1c(Oc2ccc(Br)cc2Br)cc(Br)c(Br)c1Br` [2-HO-BDE-123]: in the test on GH3 cells, the “−log RIC20 (relative anti-TH potency)” value came to 7.44 and the “TH disrupting effect determined in GH3 proliferation assay” value (from here on “TH disrupting effect determined”) is listed as “antagonists of the TR”. In addition, the “binding affinity with TRα” value on human TRα-LBD is given as “greater affinities”. As for `Oc1c(Oc2ccc(Br)cc2Br)ccc(Br)c1Br` [2′-OH-BDE-66], the “−log RIC20 (relative anti-TH potency)” value in the test with GH3 cells is 7.09. The same measure, in the same setting: the value for `Oc1c(Br)cc(Br)cc1Oc1ccc(Br)cc1Br` [2′-OH-BDE-68] was 7.15. As for `Oc1c(Br)cc(Br)c(Oc2ccc(Br)cc2Br)c1Br` [3-HO-BDE-100], in the test on GH3 cells, the “−log RIC20 (relative anti-TH potency)” value is 7.83. Further, the “binding affinity with TRα” value on human TRα-LBD is “greater affinities; also recorded: one of the strongest binding ligands”. Turning to `Oc1c(Br)cc(Oc2ccc(Br)cc2Br)c(Br)c1Br` [4-HO-BDE-90], in the test on GH3 cells, the “−log RIC20 (relative anti-TH potency)” value stood at 7.59 and the “TH disrupting effect determined” value is recorded as “antagonists of the TR”. As to `Oc1c(Br)c(Br)c(Oc2c(Br)cc(Br)cc2Br)c(Br)c1Br` [4-HO-BDE-188], the “−log RIC20 (relative anti-TH potency)” value with GH3 cells amounted to 8.42. For `Oc1cc(Br)c(Oc2ccc(Br)cc2Br)cc1Br` [4′-HO-BDE-49], the “−log RIC20 (relative anti-TH potency)” value in the test with GH3 cells is 7.30. Also, the “binding affinity with TRα” value at human TRα-LBD is on record as “too weak to detect”. Turning to `Oc1cc(Br)c(Oc2cc(Br)c(Br)cc2Br)cc1Br` [4′-HO-BDE-101], the “−log RIC20 (relative anti-TH potency)” value with GH3 cells amounted to 8.11. Still for that read-out and setting: the value for `Oc1ccc(Oc2ccc(Br)cc2Br)c(Br)c1` [4′-OH-BDE-17] was 6.51.

Take `Oc1c(Br)cc(Br)c(Br)c1Oc1ccc(Br)cc1Br` [6-HO-BDE-90]: the “−log RIC20 (relative anti-TH potency)” value in the test with GH3 cells was 7.76. On to `Oc1c(Br)c(Br)c(Br)c(Br)c1Oc1ccc(Br)cc1Br` [6-HO-BDE-137], for which, in the test with GH3 cells, the “−log RIC20 (relative anti-TH potency)” value is reported as 8.03 and the “TH disrupting effect determined” value is on record as “antagonists of the TR”. Also, the “binding affinity with TRα” value at human TRα-LBD is listed as “greater affinities”. Regarding `Oc1cc(Br)c(Br)c(Br)c1Oc1cc(Br)c(Br)c(Br)c1` [6-HO-BDE-157], the “−log RIC20 (relative anti-TH potency)” value with GH3 cells is given as 8.14. Still for that read-out and setting: the value for `Oc1cccc(Br)c1Oc1ccc(Br)cc1Br` [6′-HO-BDE-17] was 6.78.

The record behind these values is patent US10268799B2, “Screening methods for thyroid hormone disruptors based on co-regulator involved simulations” (Nanjing University, priority 2016, dated 2019).
